According to ChEMBL document CHEMBL1154027, “Imidazopyridine derivatives as potent and selective Polo-like kinase (PLK) inhibitors” (Bioorg Med Chem Lett, 2009):

Assay: Plasma concentration in F344/NJcl-rnu nude rat at 0.45 mg/kg after 48 hrs
Format: ADME, organism-based
Design: dose 0.45 mg/kg
Conditions: not given

Compound | concentration at 48 h [nM]
C[C@@H](Oc1cc(-c2cnc3ccccn23)sc1C(N)=O)c1ccc(CNC(C)(C)C)cc1OC(F)F | 50

Assay: Plasma concentration in F344/NJcl-rnu nude rat at 0.60 mg/kg after 48 hrs
Format: ADME, organism-based
Design: dose 0.6 mg/kg
Conditions: 0.6 mg/kg

Compound | concentration at 48 h [nM]
C[C@@H](Oc1cc(-c2cnc3ccccn23)sc1C(N)=O)c1ccc(CNC(C)(C)C)cc1OC(F)F | 80

Assay: Lipophilicity, Log D of the compound
Format: physicochemical
Conditions: octanol/water

Compound | logD
NC(=O)c1sc(-n2cnc3ccccc32)cc1OCc1ccccc1C(F)(F)F | 4.6
C[C@@H](Oc1cc(-c2cnc3ccccn23)sc1C(N)=O)c1ccc(CN2CCNC(=O)C2)cc1Cl | 2.8
C[C@@H](Oc1cc(-c2cnc3ccccn23)sc1C(N)=O)c1ccc(CNC(C)(C)C)cc1C(F)F | 2.6
C[C@@H](Oc1cc(-c2cnc3ccccn23)sc1C(N)=O)c1ccc(CNC(C)(C)C)cc1OC(F)F | 2.7
CCNCc1ccc([C@@H](C)Oc2cc(-c3cnc4ccccn34)sc2C(N)=O)c(Cl)c1 | 2.8
C[C@@H](Oc1cc(-c2cnc3ccccn23)sc1C(N)=O)c1ccc(CNC(C)(C)C)cc1Cl | 2.9
C[C@@H](Oc1cc(-c2cnc3ccccn23)sc1C(N)=O)c1ccc(CNCCCO)cc1Cl | 2.1
C[C@@H](Oc1cc(-c2cnc3ccccn23)sc1C(N)=O)c1ccc(CN2CCS(=O)(=O)CC2)cc1Cl | 3.2
CNCc1ccc([C@@H](C)Oc2cc(-c3cnc4ccccn34)sc2C(N)=O)c(Cl)c1 | 1.9
C[C@@H](Oc1cc(-c2cnc3ccccn23)sc1C(N)=O)c1ccc(CN2CCN(C)CC2)cc1Cl | 2.8
CC(Oc1cc(-c2cnc3ccccn23)sc1C(N)=O)c1cc(CO)ccc1Cl (stereo unspecified) | 3.7
C[C@@H](Oc1cc(-c2cnc3ccccn23)sc1C(N)=O)c1ccc(CNC(C)(C)C)cc1F | 2.2
NC(=O)c1sc(-c2cnn3ccccc23)cc1OCc1ccccc1C(F)(F)F | 4.8
C[C@@H](Oc1cc(-c2cnc3ccccn23)sc1C(N)=O)c1ccccc1Cl | 4.8
C[C@@H](Oc1cc(-c2cnc3ccccn23)sc1C(N)=O)c1ccccc1CO | 3.2
C[C@@H](Oc1cc(-c2cnc3ccccn23)sc1C(N)=O)c1ccc(CO)cc1Cl | 3.8
CC(C)NCc1ccc([C@@H](C)Oc2cc(-c3cnc4ccccn34)sc2C(N)=O)c(Cl)c1 | 2.3
C[C@@H](Oc1cc(-c2cnc3ccccn23)sc1C(N)=O)c1ccc(CNC2CC2)cc1Cl | 3.6
C[C@@H](Oc1cc(-c2cnc3ccccn23)sc1C(N)=O)c1ccc(CN2CCC(O)C2)cc1Cl (stereo partly specified) | 3.3
NC(=O)c1sc(-c2cnc3ccccn23)cc1OCc1ccccc1Cl | 4.1
C[C@@H](Oc1cc(-c2cnc3ccccn23)sc1C(N)=O)c1ccc(CNCCO)cc1Cl | 2.4
C[C@@H](Oc1cc(-c2cnc3ccccn23)sc1C(N)=O)c1ccc(CN(C)C)cc1Cl | 2.9
C[C@@H](Oc1cc(-c2cnc3ccccn23)sc1C(N)=O)c1ccc(CNC(C)(C)CO)cc1Cl | 2.9
C[C@@H](Oc1cc(-c2cnc3ccc(CO)cn23)sc1C(N)=O)c1ccccc1Cl | 4.2
C[C@@H](Oc1cc(-c2cnc3ccccn23)sc1C(N)=O)c1ccc(CN2CCC(F)CC2)cc1Cl | 3.7
C[C@@H](Oc1cc(-c2cnc3ccccn23)sc1C(N)=O)c1ccc(CN2CCC(O)CC2)cc1Cl | 3.3
NC(=O)c1sc(-c2cnc3ccccn23)cc1OCc1ccccc1C(F)(F)F | 4.2
C[C@@H](Oc1cc(-c2cnc3ccccn23)sc1C(N)=O)c1ccc(CNC2CCCC2)cc1Cl | 3.5
CC(Oc1cc(-c2cnc3cc(CO)ccn23)sc1C(N)=O)c1ccccc1Cl (racemic) | 4.1
